Where two headings read alike, the source gives them in different places.
What was measured:
[1] = tested on: Cryptosporidium parvum; assay: C. parvum proliferation in HCT-8 cells, 48 h high-content imaging assay; format: cell-based, Cryptosporidium parvum (Iowa strain); conditions: for EC50: 48 h; for EC99 against C. parvum: concentration used in washout assay
[2] = tested on: Cryptosporidium hominis (TU502); assay: C. hominis proliferation in HCT-8 cells, 48 h high-content imaging assay; format: cell-based; conditions: read-out: C. hominis 48H Assay EC50 [µM] (SD; n)
Method: Methods for continuous, in vitro cultivation of Cryptosporidium spp. have not been well established. Instead, in vivo oocyst propagation of C. parvum is performed in calves, a more promiscuous Cryptosporidium species for animal and human infections. For C. hominis, gnotobiotic piglets are the primary means of propagation. The calf is the more accessible model, making C. parvum the more convenient species to screen. However, C. hominis is equally clinically relevant with regards to human cryptosporidiosis. […] High purity powders of the 10 filtered C. parvum Bioactives screen hits and both GHCDL screen hits were tested against C. hominis (TU502) to confirm activity against both species.
(§1) Cells were then plated (5 μL/well) into 1536-well assay plates at a density of 5.5×10^5 cells/mL (2,750 cells/well).
C. parvum oocysts (Iowa strain, isolated from infected calves) were purchased from the Sterling Parasitology Laboratory, University of Arizona, and stored at 4°C for ≤ 3 months in an antibiotic solution (0.01% Tween 20 containing 100 U/mL penicillin and 100 μg/mL gentamicin). C. hominis oocysts (TU502, isolated from gnotobiotic piglets) were purchased from the Tzipori Laboratory, Cummings School of Veterinary Medicine, Tufts University, and stored at 4°C for ≤ 2 weeks in an antibiotic solution (100 U/mL penicillin and 100 μg/mL streptomycin). For infection of assay plates, 24 h after cell seeding, oocysts were excysted and prepared for inoculation as previously described. Briefly, the oocysts were diluted into 1 mL pre-warmed 10 mM HCl and then incubated in a 37°C water bath for 10 min. Oocysts were then pelleted at 3,000×g for 1 min in a microcentrifuge (Thermo), and the supernatant was carefully aspirated. Oocysts were resuspended in 2 mM sodium taurocholate in DPBS++ (with 0.9 mM CaCl2 and 0.5 mM MgCl2) and incubated at room temperature for 20 min. After incubation in bile salts, the oocysts were diluted 1:100 and free sporozoites and intact oocysts were enumerated to determine the percentage of excystation.
Plates were then washed twice with phosphate buffered saline (PBS). […] To prevent non-specific binding, the cells were blocked with SuperBlock™ T20 blocking agent (Thermo) for 1 h at room temperature. Cryptosporidium parasites were stained with 1 μg/mL fluorescein isothiocyanate (FITC)-conjugated Vicia villosa lectin (Vector Laboratories) in 1:10 diluted SuperBlock™ in PBS-T, supplemented with 3 μM 4',6-diamidino-2-phenylindole (DAPI) to visualize host cell nuclei. Staining was for 1 h at room temperature in the dark. Finally, cells were washed twice with PBS-T and the plates were sealed with adhesive foil. The plates were imaged with a CellInsight CX5 High Content Screening Platform (Thermo) with a 10× objective. […] The software identified primary objects (HCT-8 host cells) and spots within allowed distances to the nuclei (Cryptosporidium). Both cytotoxicity against HCT-8 cells (number of nuclei relative to DMSO-treated controls) and Cryptosporidium inhibition (spot counts relative to DMSO-treated controls) were assessed.
Images were processed by the HCS Studio Scan software, and Selected Object Count (HCT-8 cells) and Spot Count (Cryptosporidium) were analyzed in Genedata Screener (v13.0-Standard). Spot Count and Selected Object Count were normalized to neutral controls minus inhibitors (floxuridine for Spot Count, and puromycin for Selected Object Count).

[3] = tested on: HCT-8 (Host cells); assay: in vitro
Method: as §1
(§2) Plates were then washed twice with phosphate buffered saline (PBS). […] To prevent non-specific binding, the cells were blocked with SuperBlock™ T20 blocking agent (Thermo) for 1 h at room temperature. Cryptosporidium parasites were stained with 1 μg/mL fluorescein isothiocyanate (FITC)-conjugated Vicia villosa lectin (Vector Laboratories) in 1:10 diluted SuperBlock™ in PBS-T, supplemented with 3 μM 4',6-diamidino-2-phenylindole (DAPI) to visualize host cell nuclei. Staining was for 1 h at room temperature in the dark. Finally, cells were washed twice with PBS-T and the plates were sealed with adhesive foil. The plates were imaged with a CellInsight CX5 High Content Screening Platform (Thermo) with a 10× objective. […] For 1536-well format assays (primary screening, triplicate reconfirmation, and dose-response reconfirmation, one microscopic field (802,511.39 μm^2) per well, and for the 384-well washout assay, 4 fields per well were captured. The software identified primary objects (HCT-8 host cells) and spots within allowed distances to the nuclei (Cryptosporidium). Both cytotoxicity against HCT-8 cells (number of nuclei relative to DMSO-treated controls) and Cryptosporidium inhibition (spot counts relative to DMSO-treated controls) were assessed.
(§3) Images were processed by the HCS Studio Scan software, and Selected Object Count (HCT-8 cells) and Spot Count (Cryptosporidium) were analyzed in Genedata Screener (v13.0-Standard). Spot Count and Selected Object Count were normalized to neutral controls minus inhibitors (floxuridine for Spot Count, and puromycin for Selected Object Count). For single-point primary assay plates, an additional run-wise median correction was applied to reduce screen artifacts (e.g. uneven dispense), whereas no correction was applied to triplicate reconfirmation and dose-response plates. For primary screening, a compound is considered a hit by a ≥ 70% reduction in Corrected Spot Count. Compounds that caused moderate cytotoxicity were filtered out (i.e., excluding all Corrected Selected Object Counts ≤ -60%). Dose-response curves were fit with Genedata Analyzer using the Smart Fit function.

[4] = tested on: HEK293T; assay: HEK293T 72 h cytotoxicity (CellTiter-Glo); format: cell-based, human
Method: (§4) Two mammalian cell lines were used for counter-screening for general cytotoxicity of hit compounds: human embryonic kidney cells (HEK293T; ATCC CRL-3216) and human hepatocellular carcinoma cells (HepG2; ATCC HB-8065). […] Compounds were pre-spotted into tissue culture-treated white solid-bottomed 1536-well plates (Greiner) in a 1:3 dose-response dilution (top concentration 20 μM). HEK293T and HepG2 cells were diluted to 75×10^3 cells/mL and 150×10^3 cells/mL, respectively, and 5 μL/well were dispensed into assay plates with a MultiFlo FX Multi-Mode Dispenser (Biotek). […] At the completion of the assay, CellTiter-Glo (Promega) was prepared at 1:2 (reagent:water) of the manufacturer’s instructions, and 2 μL were dispensed into each well. After a 5 min incubation at room temperature, luminescence readings were measured with an EnVision Multilabel Plate Reader (Perkin Elmer). […] were uploaded into Genedata Screener (v13.0-Standard), and data normalized to DMSO- and puromycin-treated wells. A four-parameter non-linear regression curve fit was applied to dose-response data using Genedata to determine the half maximal cytotoxic concentration (CC50) of each compound.

[5] = tested on: HepG2; assay: HepG2 72 h cytotoxicity (CellTiter-Glo); format: cell-based, human
Method: as §4

[6] = in vitro; conditions: human
Method: as §1, §2, §3

[7] = HEK293T 72 h cytotoxicity (CellTiter-Glo); format: cell-based, human; conditions: human
Method: as §4

[8] = HepG2 72 h cytotoxicity (CellTiter-Glo); format: cell-based, human; conditions: human
Method: as §4

[9] = tested on: C. parvum; assay: Washout assay: 3-h treatments over the asexual life cycle of C. parvum
Method: We examined short, three-hour compound treatments of in vitro cultures, followed by compound washout, that covered the complete asexual life cycle, believed to be 13–15 h post invasion [36]. […] The treatment interval lasted 3 h before washout with fresh medium; infected cells were allowed to grow until 48 h post infection before fixation. […] As CFZ is very lipophilic, we sought to determine whether intracellular accumulation was affecting the strong inhibition across each time point.
Infected cells were treated in six 3-h increments over the course of 15 h (the presumed in vitro asexual lifecycle of C. parvum). HCT-8 cells were seeded (25 μL/well) into clear-bottomed 384-well plates (Greiner) at a density of 6.0×10^5 cells/mL (15,000 cells/well) in assay medium, and allowed to grow 24 h at 37°C with 5% CO2 in a humidified tissue culture incubator, covered with a custom metal lid (The Genomics Institute of the Novartis Research Foundation) to reduce evaporation. After 24 h, and 2 h before infecting with C. parvum oocysts (time -2 hpi), the treatment time course was initiated. […] DMSO was used as a negative control. Cell medium was removed from designated wells and replaced with medium containing either compound or DMSO. […] Plates were then spun at 150×g for 3 min, and kept at 37°C with 5% CO2 in a humidified tissue culture incubator during drug treatment intervals. At the end of each 3 h time point, infected cells were carefully washed three times with fresh, pre-warmed assay medium, and the next set of wells for the subsequent time point were treated. The final time point extended to 18 h, to cover re-invasion of merozoites into new HCT-8 cells. After the final compound treatment was washed off, infected cells were allowed to grow until 48 h post infection.

[10] = tested on: C. parvum; assay: Host cell 3-h pre-treatment, with or without wash, then C. parvum infection; format: cell-based, Cryptosporidium parvum; conditions: for EC50: Cryptosporidium parvum, host cells pretreated 3 h, C. parvum, 48 hpi
Method: A set of parallel wells were also treated and not washed prior to infection. 48 hpi, infected cells were imaged as described above, and EC50s for each compound pre- and post-wash were determined.

[11] = in HCT-8 cells, value (SD; n), read-out: C. parvum 48H Assay EC50 [µM] (SD; n)
[12] = in HCT-8 cells, 48 h, value (SD; n)
[13] = Cryptosporidium parvum, HCT-8 cells, read-out: EC50 against C. parvum
[14] = Cryptosporidium parvum, in HCT-8 cells, value (SD; n), read-out: C. parvum 48H Assay EC50 [µM] (SD; n)
[15] = 72 h, value (SD; n), read-out: HEK293T 72H Cytotoxicity CC50 [µM] (SD; n)
[16] = 72 h, value (SD; n), read-out: HepG2 72H Cytotoxicity CC50 [µM] (SD; n)
[17] = Cryptosporidium hominis, in HCT-8 cells, 48 h, value (SD; n)
[18] = HEK293T cells, 72 h, value (SD; n), read-out: HEK293T 72H Cytotoxicity CC50 [µM] (SD; n)
[19] = HepG2 cells, 72 h, value (SD; n), read-out: HepG2 72H Cytotoxicity CC50 [µM] (SD; n)
[20] = read-out: HCT-8 (Host cells) 48H Assay CC50 [µM] (SD; n), 48 h, value (SD; n)

Rocilinostat [Rocilinostat; ACY-1215]
EC50 [1, 11]: 0.356 µM | EC50 [2, 12]: 0.451 µM | CC50 [3]: 11.4 µM | CC50 [4]: 12.1 µM | CC50 [5]: 0.849 µM

CC[C@@]1([C@@H]2O[C@@H]([C@H]3O[C@@](O)(CO)[C@H](C)C[C@@H]3C)C[C@@H]2C)CC[C@H]([C@]2(C)CC[C@]3(C[C@H](O)[C@@H](C)[C@@H]([C@@H](C)[C@@H](OC)[C@H](C)C(=O)O)O3)O2)O1 [Monensin sodium]
EC50 [1, 13]: 0.007 µM | EC50 [1, 14]: 0.00704 µM | EC50 ([2]; Cryptosporidium hominis, HCT-8, 48 h): 0.0103 µM | CC50 at 48 h [6]: > 12500 nM | CC50 at 72 h [7, 15]: 0.516 µM | CC50 at 72 h [8, 16]: 1.65 µM

Cc1csc(NCC(O)c2c[nH]c3ccccc23)n1 (stereo not drawn) [GHCDL-2]
EC50 [1, 13]: 0.293 µM | EC50 [2, 17]: 0.946 µM | CC50 at 48 h ([6]; HCT-8 cells): > 12500 nM | CC50 at 72 h [7, 18]: > 20 µM | CC50 at 72 h [8, 19]: > 20 µM

Cn1c2ccccc2c2c3c(c4c5ccccc5n(CCC#N)c4c21)CNC3O (stereo not drawn) [Gö 6976]
EC50 [1, 13]: 0.0025 µM | EC50 [1, 14]: 0.00245 µM | EC50 [2, 17]: 0.00496 µM | CC50 at 48 h ([6]; HCT-8 cells): > 12500 nM | CC50 at 72 h [7, 18]: 0.124 µM | CC50 at 72 h [8, 19]: > 20 µM

Momelotinib [Momelotinib; CYT-387]
EC50 [1, 11]: 0.37 µM | EC50 [2, 12]: 0.389 µM | CC50 [3]: 6.05 µM | CC50 [4]: 19 µM | CC50 [5]: 7.76 µM

COc1cc(Nc2ncc(F)c(Nc3ccc4c(n3)NC(O)C(C)(C)O4)n2)cc(OC)c1OC (stereo not drawn) [R406]
EC50 [1, 14]: 0.254 µM | EC50 [2, 17]: 0.647 µM | CC50 at 48 h ([6]; HCT-8 cells): > 12500 nM | CC50 at 72 h [7, 18]: > 20 µM | CC50 at 72 h [8, 19]: 0.596 µM

OC1CCCC2Nc3nonc3NC(c3ccc(Cl)cc3Cl)C12 (stereo not drawn) [GHCDL-1]
EC50 [1, 13]: 1.42 µM | EC50 [2, 17]: 2.82 µM | CC50 at 48 h ([6]; HCT-8 cells): > 12500 nM | CC50 at 72 h [7, 18]: > 20 µM | CC50 at 72 h [8, 19]: > 20 µM

Oc1ccc(Cl)cc1NC(S)NC(O)c1cccc(Br)c1 (stereo not drawn) [NSC215721]
EC50 [1, 14]: 0.278 µM | EC50 [2, 17]: 0.176 µM | CC50 at 48 h ([6]; HCT-8 cells): > 12500 nM | CC50 at 72 h [7, 18]: > 20 µM | CC50 at 72 h [8, 19]: > 20 µM

Vorinostat [Vorinostat; SAHA]
CC50 [3]: 1.84 µM | CC50 [4]: 4.27 µM | CC50 [5]: 1.07 µM

Puromycin
EC50 [1, 11]: 0.482 µM | EC50 [2, 12]: 0.742 µM | CC50 [3, 20]: 3.15 µM | CC50 [4, 15]: 0.519 µM | CC50 [5, 16]: 1.13 µM

Nitazoxanide
EC50 ([1]; HCT-8 cells, read-out: EC50 against C. parvum): 2.8 µM | EC99 against C. parvum [1]: 8 µM | EC50 [1, 11]: 2.84 µM | EC50 [2, 12]: 2.82 µM | CC50 [3, 20]: > 10 µM | CC50 [4, 15]: > 48 µM | CC50 [5, 16]: > 48 µM | inhibition of parasite growth at all time points other than 10–13 h post infection ([9]; 3-h treatment then washout, even at 3×EC99): < 60%

O=c1[nH]c(=O)n([C@H]2C[C@H](O)[C@@H](CO)O2)cc1F [5-fluoro-2'-deoxyuridine; Floxuridine, 5-fluoro-2'-deoxyuridine]
EC50 [1, 13]: 0.017 µM | EC50 [1, 14]: 0.0172 µM | EC99 against C. parvum [1]: 0.1 µM | EC50 [2, 17]: 0.0182 µM | CC50 at 48 h [6]: 154 nM | CC50 at 72 h [7]: 0.0471 µM | CC50 at 72 h [8]: 0.214 µM | EC50 ([10]; read-out: Post-wash EC50): 9.4 nM | EC50 ([10]; read-out: Pre-wash EC50): 53 nM | inhibition of C. parvum proliferation after compound removal by repeated washes ([10]; host cell pre-treatment, dose-response): near equipotent inhibition | inhibition of C. parvum proliferation, every 3-h time point of the asexual life cycle ([9]; treated at EC99 for 3 h, washout, read at 48 hpi): strong inhibition of growth across all time points

Source: article PMC5310922, “A high-throughput phenotypic screen identifies clofazimine as a potential treatment for cryptosporidiosis” (PLoS Neglected Tropical Diseases, 2017)
